Test results published in US7252992B2, “Cell line and uses thereof” (Abbott Laboratories, priority 2003, dated 2007).

Columns and labels:
[1] = target: T1, melanin concentrating hormone receptor (MCHR) (Homo sapiens, UniProt Q99705); assay: Ca++-mobilization assay using I3.4.2 cells (FLIPR); format: cell-based; conditions: for inhibition of MCH-stimulated intracellular Ca++-flux: T42402I3.4.2 cell line, FIG. 3
T1 construct: endogenous in cells; host or cells: T42402I3.4.2 (I3.4.2) cells, ATCC PTA-5201, derived from IMR32 (ATCC CCL-127) by transfection of a Galpha16/Zeocin-resistance plasmid
Protocol: The following day, Zeocin (Invitrogen, Carlsbad, Calif.) was added to a final concentration of 20 μg/ml. Cells were maintained in this medium with periodic replacement until discrete colonies were observed. Individual colonies were isolated and propagated until sufficiently large cell populations were obtained such that the cell samples could be cryopreserved.
This intracellular calcium release is measured using a fluorometeric imaging plate reader (FLIPR™, Molecular Devices Corp., Sunnyvale, Calif.) in conjunction with the Ca^++-sensitive dye reagent (Calcium Assay Reagent, Molecular Devices Corp., Sunnyvale, Calif.). Release of Ca^++ from intracellular stores causes an increase in fluorescence of the dye that is proportional to Ca^++ concentration. Thus, this method may be utillized to identify agonist-s, antagonists, and inverse agonists of MCHR1.
In particular, the assay is carried out as follows: The cells are cultured in MEM/10% fetal bovine serum/50 μg/mL gentamicin/200 μg/ml Zeocin. […] Calcium Assay Reagent fluorescence is measured at 488 nm, with an exposure of 0.40 sec. and F-stop=2.0 and the laser set at 0.20-0.40 W constant light output.

MCHR1 [2] = target: T2, MCHR1 (Homo sapiens, UniProt Q99705); conditions: literature (Takekawa et al. 2002; Borowsky et al. 2002); cited from earlier work
MCHR1 [3] = target: T2, MCHR1; conditions: literature (Takekawa et al. 2002; Borowsky et al. 2002); cited from earlier work; remark: listed apart in the source

T2 sequence (Q99705 whole entry, species assumed): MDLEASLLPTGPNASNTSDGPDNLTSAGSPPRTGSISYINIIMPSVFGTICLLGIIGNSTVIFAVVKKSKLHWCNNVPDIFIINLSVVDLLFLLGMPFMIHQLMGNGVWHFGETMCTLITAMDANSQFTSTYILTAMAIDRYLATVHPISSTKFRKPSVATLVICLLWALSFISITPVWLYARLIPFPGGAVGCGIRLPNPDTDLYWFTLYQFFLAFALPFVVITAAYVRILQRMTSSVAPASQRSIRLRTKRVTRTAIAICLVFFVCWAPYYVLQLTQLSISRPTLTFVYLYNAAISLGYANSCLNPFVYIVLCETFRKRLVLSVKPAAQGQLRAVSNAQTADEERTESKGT
T1 sequence (Q99705 whole entry): as the sequence (Q99705 whole entry, species assumed) above

Structure (SMILES)	MCH-induced response (fluorescence) ([1]; MCH 1 μM, baseline approximately 700 RFU)	inhibition of MCH-stimulated intracellular Ca++-flux [1]	inhibition of binding of 125I-labeled MCH to MCHR1 (MCHR1 [2])	inhibition of activation of intracellular signaling by MCH (MCHR1 [3])
CSCC[C@@H]1NC(=O)[C@@H](NC(=O)[C@H](CCCNC(=N)N)NC(=O)[C@H](CC(C)C)NC(=O)[C@H](CCSC)NC(=O)[C@H](CC(=O)O)NC(=O)[C@H](Cc2ccccc2)NC(=O)[C@@H](N)CC(=O)O)CSSC[C@@H](C(=O)N[C@@H](Cc2c[nH]c3ccccc23)C(=O)N[C@@H](CCC(N)=O)C(=O)N[C@H](C(=O)O)C(C)C)NC(=O)[C@@H]2CCCN2C(=O)[C@H](CCCNC(=N)N)NC(=O)[C@H](Cc2ccc(O)cc2)NC(=O)[C@H](C(C)C)NC(=O)[C@H](CCCNC(=N)N)NC(=O)CNC(=O)[C@H](CC(C)C)NC1=O [MCH, melanin-concentrating hormone]	5,000-6,000 relative fluorescence units (RFU)	–	–	–
COCC1=C(C(=O)OC)[C@H](c2ccc(F)c(F)c2)N(C(=O)NCCCN2CCC(c3cccc(NC(C)=O)c3)CC2)C(=O)N1 [SNAP-7941]	–	inhibited	inhibit binding	inhibit
CN(C)CC1CCc2cc(NC(=O)c3ccc(-c4ccc(F)cc4)cc3)ccc2C1 (stereo not shown) [T-226296]	–	inhibited	inhibit binding	inhibit
